Data on three compounds can be found in publication PMC3091868, “A Novel Structural Framework for α1A/D-Adrenoceptor Selective Antagonists Identified Using Subtype Selective Pharmacophores” (PLoS ONE, 2011).

Design in all cases: species or system rodent
The target in one experiment is T1, α1D-AR (Rattus norvegicus, UniProt P23944).
T1 construct: expressed in transfected cells; host or cells: COS-1
T1 sequence (P23944 1-561): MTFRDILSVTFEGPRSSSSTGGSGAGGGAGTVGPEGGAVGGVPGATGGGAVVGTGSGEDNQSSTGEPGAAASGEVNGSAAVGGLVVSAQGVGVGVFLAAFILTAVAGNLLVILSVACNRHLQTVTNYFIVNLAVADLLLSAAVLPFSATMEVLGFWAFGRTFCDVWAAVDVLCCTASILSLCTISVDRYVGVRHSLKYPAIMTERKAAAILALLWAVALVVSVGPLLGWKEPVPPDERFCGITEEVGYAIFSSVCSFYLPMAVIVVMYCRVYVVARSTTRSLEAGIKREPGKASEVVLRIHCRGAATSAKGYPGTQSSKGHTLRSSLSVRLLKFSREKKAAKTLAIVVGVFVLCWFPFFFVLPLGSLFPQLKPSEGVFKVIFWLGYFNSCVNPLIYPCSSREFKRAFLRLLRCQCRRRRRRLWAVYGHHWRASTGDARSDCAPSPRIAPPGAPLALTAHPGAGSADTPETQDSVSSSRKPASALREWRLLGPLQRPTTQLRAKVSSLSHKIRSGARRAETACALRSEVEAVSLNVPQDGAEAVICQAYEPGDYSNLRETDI
Put plainly: [3H]Prazosin competition/saturation binding on COS-1 membranes expressing α1D-AR. The note with it: [3H]Prazosin 200 pM. Here is the method:
(§1) COS-1 cells (American Type Culture Collection, Manassas, VA) were cultured in Dulbecco's modified Eagle's medium (DMEM) supplemented with 10% (v/v) heat inactivated fetal bovine serum (FBS), 100 µg ml^−1 penicillin and 100 µg ml^−1 streptomycin. Cells were maintained and passaged upon reaching confluence by standard cell culture techniques. pMT4 plasmids containing rodent α1-AR (a kind gift from Prof R Graham, Victor Chang Cardiac Research Institute, Australia) were used to transfect cells. Transient expression in COS-1 cells was accomplished using two techniques; the diethylaminoethane-dextran (DEAE-dextran) and Lipofectamine 2000 (Invitrogen, Carlsbad, CA, USA) methods. Briefly, the DEAE-dextran method involved washing of cells with phosphate buffered saline (PBS), followed by the addition of the DNA mixture (12–25 µg/4×10^6 cells) in DEAE-dextran (10 mg ml^−1) to cells at 60–80% confluency. Following a 3 h incubation, a PBS wash with 10% DMSO was used to shock the cells. Cells were harvested 72 h post transfection. For the Lipofectamine 2000 method, cells were incubated for 12 h with Opti-MEM (GIBCO BRL, Gaithersburg, MD, USA) containing Lipofectamine 2000.
(§2) Membranes were prepared as described previously. Briefly, COS-1 cells were transiently transfected using the DEAE-dextran method. […] Protein concentration was determined using Bradford reagent (Sigma, St Louis, MO, USA).
(§3) For all binding experiments, the reaction mixture was incubated for 1 h at room temperature, stopped by the addition of 4°C PBS and filtered with a Brandel cell harvester (Gaithersburg, MD, USA) on GF/C filters. Nonspecific binding was defined as binding in the presence of 100 µM phentolamine hydrochloride.
(§4) Nonlinear regression analysis of saturation and competition binding assay data was performed using the […] curve fitting program GraphPad Prism (San Diego, CA, USA). […] The competitive binding data for each ligand was tested for both one and two -site binding.

The next experiment deals with T2, α1B-AR (Mesocricetus auratus, UniProt P18841).
T2 construct: expressed in transfected cells; host or cells: COS-1
T2 sequence (P18841 1-515): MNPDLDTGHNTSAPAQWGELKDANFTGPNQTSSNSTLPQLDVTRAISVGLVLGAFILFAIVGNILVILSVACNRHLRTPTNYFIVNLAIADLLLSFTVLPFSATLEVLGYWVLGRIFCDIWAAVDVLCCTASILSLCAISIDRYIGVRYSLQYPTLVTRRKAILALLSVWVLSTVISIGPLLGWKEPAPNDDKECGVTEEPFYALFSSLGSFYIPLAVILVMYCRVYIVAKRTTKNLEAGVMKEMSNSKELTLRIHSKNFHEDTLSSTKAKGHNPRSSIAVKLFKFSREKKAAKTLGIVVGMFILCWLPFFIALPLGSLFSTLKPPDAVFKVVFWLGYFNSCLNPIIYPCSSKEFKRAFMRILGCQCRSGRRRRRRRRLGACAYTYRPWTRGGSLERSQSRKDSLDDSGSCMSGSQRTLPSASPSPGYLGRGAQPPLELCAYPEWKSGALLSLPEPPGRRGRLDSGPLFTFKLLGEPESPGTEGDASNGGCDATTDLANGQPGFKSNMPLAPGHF
Put plainly: [3H]Prazosin competition/saturation binding on COS-1 membranes expressing α1B-AR. Here is the method: as §1, §2, §3, §4

The next experiment deals with T3, α1A-AR (Rattus norvegicus, UniProt P43140).
T3 construct: expressed in transfected cells; host or cells: COS-1
T3 sequence (P43140 1-466): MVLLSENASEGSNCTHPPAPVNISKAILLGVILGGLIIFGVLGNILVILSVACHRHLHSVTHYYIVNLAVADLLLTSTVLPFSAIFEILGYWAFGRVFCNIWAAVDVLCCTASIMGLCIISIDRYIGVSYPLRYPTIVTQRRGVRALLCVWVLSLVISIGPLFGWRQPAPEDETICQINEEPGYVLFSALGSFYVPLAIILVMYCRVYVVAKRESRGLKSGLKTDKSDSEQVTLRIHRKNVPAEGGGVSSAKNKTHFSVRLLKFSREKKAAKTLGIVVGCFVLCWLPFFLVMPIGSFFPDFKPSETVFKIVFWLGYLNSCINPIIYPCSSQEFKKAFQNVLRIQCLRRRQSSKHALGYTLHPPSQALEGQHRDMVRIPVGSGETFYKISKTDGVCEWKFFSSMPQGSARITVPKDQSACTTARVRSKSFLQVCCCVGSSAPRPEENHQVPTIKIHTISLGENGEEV
Put plainly: [3H]Prazosin competition/saturation binding on COS-1 membranes expressing α1A-AR. As to conditions: for Ki: [3H]Prazosin 200 pM, COS-1 membranes. Here is the method: as §1, §2, §3, §4

Where [1] appears, read: antilog of mean pKi, Cheng-Prusoff, read-out: Ki α1D-AR.
The mark [2] stands for this setting: pKi = -Log Ki, read-out: pKi α1D-AR (converted).
Where [3] appears, read: [3H]Prazosin 200 pM, COS-1 membranes, antilog of mean pKi, Cheng-Prusoff, read-out: Ki α1B-AR.
The mark [4] stands for this setting: antilog of mean pKi, Cheng-Prusoff, read-out: Ki α1A-AR.
Setting [5] is: [3H]Prazosin 200 pM, COS-1 membranes, pKi = -Log Ki, read-out: pKi α1B-AR (converted).
Setting [6] is: pKi = -Log Ki, read-out: pKi α1A-AR (converted).

Each structure is given as a SMILES string. Like-named read-outs stand apart in the source and are kept apart here. Where only a bound is given, the exact number is not on record here.

For the compound `Cc1ccc(C)c(N2CCN(CC(O)COC(C)(C)C)CC2)c1` (stereo not shown) [Compound 1], the Ki on α1D-AR (Ki α1D-AR, antilog of mean pKi, Cheng-Prusoff) is under 2000 nM; on α1D-AR (setting [1]) it was 830 nM; on α1D-AR (setting [2]), 794 nM; on α1B-AR, under 2000 nM; on α1B-AR (setting [3]), 1420 nM; on α1A-AR (Ki α1A-AR, antilog of mean pKi, Cheng-Prusoff), under 2000 nM. The Ki on α1A-AR (setting [4]) was 1170 nM.
Consider `CCCCCCCCN(CCCCCCCC)CC(O)c1ccccc1Cl` (stereo not shown) [Compound 8], for which the Ki at α1D-AR (setting [1]) was 48700 nM; on α1B-AR (setting [3]), over 100000 nM; at α1B-AR (setting [5]), over 100000 nM; at α1A-AR (setting [4]), 45900 nM; on α1A-AR (setting [6]), 41700 nM.
Consider `COc1cc2c(cc1OC)C1CC(C)=C(c3ccccc3)CN1CC2` (stereo not shown) [Compound 11], for which the Ki on α1D-AR (setting [1]) was 1600 nM; at α1D-AR (setting [2]), 1510 nM; on α1B-AR (setting [3]) it was 11800 nM; on α1B-AR (setting [5]), 11000 nM; on α1A-AR (setting [4]) it was 2000 nM; on α1A-AR (setting [6]), 1780 nM. Also, at α1A-AR (from binding affinities), the “selectivity for α1A-AR over α1B-AR” value is given as 7 fold.
